Experiments:
[1] = target: human CB1 receptor (Homo sapiens, UniProt P21554); test: FLIPR membrane potential assay; format: cell-based; details: for EC50: membrane potential; for CB1 selectivity: ratio of CB2 EC50 to CB1 EC50; for hCB1 Max ± SEM (% CP 55,940): maximum drug effect as percentage of maximally effective (1 µM) CP 55,940
[2] = target: human CB2 receptor (Homo sapiens, UniProt P34972); test: FLIPR membrane potential assay; format: cell-based; details: for hCB2 Max ± SEM (% CP 55,940) at 30 µM: effect at 30 µM, highest concentration tested, relative to 1 µM CP 55,940; for EC50: membrane potential; for hCB2 Max ± SEM (% CP 55,940): maximum drug effect as percentage of maximally effective (1 µM) CP 55,940
[3] = hCB1 pEC50 ± SEM, AtT-20-CB1 cells
[4] = hCB2 pEC50 ± SEM, AtT-20-CB2 cells

Sequence of human CB1 receptor (P21554 whole entry): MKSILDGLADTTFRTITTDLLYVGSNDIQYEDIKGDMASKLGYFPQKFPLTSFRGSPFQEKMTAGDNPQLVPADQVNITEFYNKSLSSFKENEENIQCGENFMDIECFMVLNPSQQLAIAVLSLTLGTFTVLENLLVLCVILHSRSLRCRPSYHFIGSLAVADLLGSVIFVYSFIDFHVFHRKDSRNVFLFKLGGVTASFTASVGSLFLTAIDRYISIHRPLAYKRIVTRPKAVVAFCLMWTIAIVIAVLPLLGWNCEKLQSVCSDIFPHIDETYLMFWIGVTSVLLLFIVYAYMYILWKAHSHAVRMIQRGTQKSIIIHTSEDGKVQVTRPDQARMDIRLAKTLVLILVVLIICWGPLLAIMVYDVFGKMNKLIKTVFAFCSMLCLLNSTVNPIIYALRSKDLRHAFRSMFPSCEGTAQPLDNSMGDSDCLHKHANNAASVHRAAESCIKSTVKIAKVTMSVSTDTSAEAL
Sequence of human CB2 receptor (P34972 whole entry): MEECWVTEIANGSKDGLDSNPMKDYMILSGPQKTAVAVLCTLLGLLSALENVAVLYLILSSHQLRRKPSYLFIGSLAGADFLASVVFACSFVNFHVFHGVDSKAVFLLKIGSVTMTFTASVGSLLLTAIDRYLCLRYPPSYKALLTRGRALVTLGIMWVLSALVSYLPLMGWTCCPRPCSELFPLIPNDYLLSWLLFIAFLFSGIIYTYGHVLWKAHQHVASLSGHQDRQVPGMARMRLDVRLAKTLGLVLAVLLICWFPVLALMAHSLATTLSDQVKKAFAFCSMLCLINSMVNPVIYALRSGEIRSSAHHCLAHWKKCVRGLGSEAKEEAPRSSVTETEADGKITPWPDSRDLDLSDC

CC(C)[C@H](NC(=O)c1c2ccccc2nn1Cc1ccc(F)cc1)C(N)=O [compound 8, (S)-N-(1-Amino-3-methyl-1-oxobutan-2-yl)-2-(4-fluorobenzyl)-2H-indazole-3-carboxamide]
hCB1 Max ± SEM (% CP 55,940) at 30 µM ([1]; effect at 30 µM, highest concentration tested, relative to 1 µM CP 55,940): 61 ± 12 (at 30 µM) % CP 55,940 | hCB2 Max ± SEM (% CP 55,940) at 30 µM [2]: 25 ± 4 (at 30 µM) % CP 55,940

CC(C)[C@H](NC(=O)c1c2ccccc2nn1CCCCCF)C(N)=O [compound 10, (S)-N-(1-Amino-3-methyl-1-oxobutan-2-yl)-2-(5-fluoropentyl)-2H-indazole-3-carboxamide]
EC50 ([1]; hCB1 EC50, AtT-20-CB1 cells): 1930 nM | EC50 [1, 3]: 1910 nM | CB1 selectivity [1]: 1.5 | hCB2 Max ± SEM (% CP 55,940) at 30 µM [2]: 47 ± 15 (at 30 µM) % CP 55,940 | EC50 ([2]; hCB2 EC50, AtT-20-CB2 cells): 2980 nM

CC(C)[C@H](NC(=O)c1nn(CC2CCCCC2)c2ccccc12)C(N)=O [compound 3, (S)-N-(1-Amino-3-methyl-1-oxobutan-2-yl)-1-(cyclohexylmethyl)-1H-indazole-3-carboxamide]
EC50 ([1]; hCB1 EC50, AtT-20-CB1 cells): 7.8 nM | hCB1 Max ± SEM (% CP 55,940) [1]: 142 ± 18 % CP 55,940 | CB1 selectivity [1]: 2.7 | EC50 [2, 4]: 20.9 nM | hCB2 Max ± SEM (% CP 55,940) [2]: 104 ± 11 % CP 55,940

CC(C)[C@H](NC(=O)c1nn(CCCCCF)c2ccccc12)C(N)=O [compound 6, (S)-N-(1-Amino-3-methyl-1-oxobutan-2-yl)-1-(5-fluoropentyl)-1H-indazole-3-carboxamide]
EC50 [1, 3]: 2.82 nM | hCB1 Max ± SEM (% CP 55,940) [1]: 132 ± 9 % CP 55,940 | CB1 selectivity [1]: 2.0 | EC50 ([2]; hCB2 EC50, AtT-20-CB2 cells): 5.6 nM | hCB2 Max ± SEM (% CP 55,940) [2]: 98 ± 8 % CP 55,940

CCCCCn1nc2ccccc2c1C(=O)N[C@H](C(N)=O)C(C)C [compound 9, (S)-N-(1-Amino-3-methyl-1-oxobutan-2-yl)-2-pentyl-2H-indazole-3-carboxamide]
EC50 ([1]; hCB1 EC50, AtT-20-CB1 cells): 4080 nM | CB1 selectivity [1]: 1.0 | EC50 ([2]; hCB2 EC50, AtT-20-CB2 cells): 4120 nM

CC(C)[C@H](NC(=O)c1c2ccccc2nn1CC1CCCCC1)C(N)=O [compound 7, (S)-N-(1-Amino-3-methyl-1-oxobutan-2-yl)-2-(cyclohexylmethyl)-2H-indazole-3-carboxamide]
hCB2 Max ± SEM (% CP 55,940) at 30 µM [2]: 45 ± 7 (at 30 µM) % CP 55,940

CC(C)[C@H](NC(=O)c1nn(Cc2ccc(F)cc2)c2ccccc12)C(N)=O [compound 4, (S)-N-(1-Amino-3-methyl-1-oxobutan-2-yl)-1-(4-fluorobenzyl)-1H-indazole-3-carboxamide]
EC50 [1, 3]: 2.14 nM | hCB1 Max ± SEM (% CP 55,940) [1]: 151 ± 14 % CP 55,940 | CB1 selectivity [1]: 3.2 | EC50 ([2]; hCB2 EC50, AtT-20-CB2 cells): 6.7 nM | hCB2 Max ± SEM (% CP 55,940) [2]: 98 ± 10 % CP 55,940

CCCCCn1nc(C(=O)N[C@H](C(N)=O)C(C)C)c2ccccc21 [compound 5, (S)-N-(1-Amino-3-methyl-1-oxobutan-2-yl)-1-pentyl-1H-indazole-3-carboxamide]
EC50 ([1]; hCB1 EC50, AtT-20-CB1 cells): 6.5 nM | hCB1 Max ± SEM (% CP 55,940) [1]: 142 ± 15 % CP 55,940 | CB1 selectivity [1]: 1.5 | EC50 ([2]; hCB2 EC50, AtT-20-CB2 cells): 9.9 nM | EC50 [2, 4]: 9.77 nM | hCB2 Max ± SEM (% CP 55,940) [2]: 102 ± 9 % CP 55,940
